Here are results for one molecule from patent US8969555B2, “Bicyclic pyrimidine compounds” (Eli Lilly and Company, priority 2013, dated 2015).

For assay [1], the target named is T1, recombinant human autotaxin (Homo sapiens, UniProt Q13822).
T1 construct: full length human autotaxin with a C-terminal His tag transfected into 293E cells; His tag (C); made in house; host or cells: 293E cells
Put plainly: Inhibition of Autotaxin as Measured by Choline Release. The format is biochemical. The following applies: LPC 16:0 30 μM, 37° C. 1 hour, arithmetic mean.

The target in assay [2] is T2, endogenous autotaxin (Homo sapiens, UniProt Q13822).
T2 construct: The increased endogenous LPC levels are cleaved by endogenous autotaxin; tissue Lampire Biologicals; host or cells: pooled human plasma (healthy female donors, sodium heparin)
Briefly: Reduction of LPA in the Presence of Human Plasma. It counts as biochemical. As to conditions: 90% pooled human plasma, 3 hours at 37° C., total LPA by mass spec; arithmetic mean.

Regarding `O=C(COCCc1cnn[nH]1)N1CCc2nc(NC3Cc4ccccc4C3)ncc2C1` [Example 1 and 1a, 1-[2-(2,3-dihydro-1H-inden-2-ylamino)-7,8-dihydropyrido[4,3-d]pyrimidin-6(5H)-yl]-2-[2-(1H-1,2,3-triazol-4-yl)ethoxy]ethanone], the IC50 is 5.7 nM in assay [1] and 10 nM in assay [2].

For orientation: IC50 means the midpoint of a concentration-inhibition curve.
